Data reported in US20100029949A1, “Activator for Peroxisome Proliferator Activated Receptor” (priority 2005, published 2010).

Experiments:
Format in all cases: cell-based
PPAR δ = target: T1, PPAR δ (Homo sapiens, UniProt Q03181); test: GAL4-hPPAR δ (LBD) luciferase reporter transactivation in CV-1 cells; conditions: test compound 10^−6 M, control GW-501516 10^−7 M = 100%
T1 construct: A receptor expression plasmid (pSG5-GAL4-hPPAR α or γ or δ (LBD)); expressed in transfected cells; host or cells: CV-1 cells (ATCC)
T1 sequence (Q03181 211-439 limits assumed): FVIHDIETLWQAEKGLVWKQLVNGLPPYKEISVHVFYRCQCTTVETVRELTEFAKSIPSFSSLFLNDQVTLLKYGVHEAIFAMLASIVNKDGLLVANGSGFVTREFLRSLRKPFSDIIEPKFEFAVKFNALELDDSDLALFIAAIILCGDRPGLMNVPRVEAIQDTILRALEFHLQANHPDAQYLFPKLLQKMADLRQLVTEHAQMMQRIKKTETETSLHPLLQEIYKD
Procedure: (§1) A receptor expression plasmid (pSG5-GAL4-hPPAR α or γ or δ (LBD)), a luciferase expression plasmid (pUC8-MH100x-4-TK-Luc) and β-galactosidase expression plasmid (pCMX-β-GAL) (Kliewer, S. A., et. al., (1992) Nature, 358:771-774) are transfected into CV-1 cells (ATCC). After gene transfer utilizing a lipofection reagent DMRIE-C or Lipofectamin 2000 (Invitrogen), it is incubated for 42 hours in the presence of the test compound. Then, the luciferase activity and β-GAL activity are measured on the soluble cells. The luciferase activity is calibrated by the β-GAL activity. A relative ligand activity is calculated for each of the PPAR α, γ and δ under the following conditions: a relative activity of PPAR α is calculated in consideration of a luciferase activity (assigned to 100%) of cells treated with the compound GW-590735 (PPARα-selective agonist); a relative activity of PPAR γ is calculated in consideration of a luciferase activity (assigned to 100%) cells treated with Rosiglitazone; and a relative activity of PPAR δ is calculated in consideration of a luciferase activity (assigned to 100%) of cells treated with GW-501516. See the below-described Example 4.
(§2) The PPARδ activating effects of test compounds (compounds of Examples) were measured by the following method: […]
(§3) After gene transfer utilizing a lipofection reagent DMRIE-C or Lipofectamin 2000 (Invitrogen), it is incubated for approx. 40 hours in the presence of the test compound. Then, the luciferase activity and β-GAL activity are measured on the soluble cells. […] A relative ligand activity is calculated for each of the PPAR α, γ and δ under the following conditions: a relative activity of PPAR α is calculated in consideration of a luciferase activity (assigned to 100%) of cells treated with GW-590735 (PPARα-selective agonist); a relative activity of […] is calculated in consideration of a luciferase activity (assigned to 100%) cells treated with Rosiglitazone; and a relative activity of PPARδ is calculated in consideration of a luciferase activity (assigned to 100%) of cells treated with GW-501516.

PPAR α = target: T2, PPAR α (Homo sapiens, UniProt Q07869); test: GAL4-hPPAR α (LBD) luciferase reporter transactivation in CV-1 cells; conditions: test compound 10^−6 M, control GW-590735 10^−6 M = 100%
T2 construct: A receptor expression plasmid (pSG5-GAL4-hPPAR α or γ or δ (LBD)); expressed in transfected cells; host or cells: CV-1 cells (ATCC)
T2 sequence (Q07869 239-466 limits assumed): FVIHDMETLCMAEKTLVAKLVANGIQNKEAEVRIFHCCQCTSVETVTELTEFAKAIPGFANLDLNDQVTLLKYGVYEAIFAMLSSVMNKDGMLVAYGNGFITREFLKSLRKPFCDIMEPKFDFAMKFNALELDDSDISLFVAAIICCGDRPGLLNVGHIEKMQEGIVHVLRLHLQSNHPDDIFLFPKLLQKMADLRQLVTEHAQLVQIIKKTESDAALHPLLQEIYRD
Procedure: as §1, §2, §3

PPAR γ = target: T3, PPAR γ (Homo sapiens, UniProt P37231); test: GAL4-hPPAR γ (LBD) luciferase reporter transactivation in CV-1 cells; conditions: test compound 10^−6 M, control Rosiglitazone 10^−5 M = 100%
T3 construct: A receptor expression plasmid (pSG5-GAL4-hPPAR α or γ or δ (LBD)); expressed in transfected cells; host or cells: CV-1 cells (ATCC)
T3 sequence (P37231 238-503 limits assumed): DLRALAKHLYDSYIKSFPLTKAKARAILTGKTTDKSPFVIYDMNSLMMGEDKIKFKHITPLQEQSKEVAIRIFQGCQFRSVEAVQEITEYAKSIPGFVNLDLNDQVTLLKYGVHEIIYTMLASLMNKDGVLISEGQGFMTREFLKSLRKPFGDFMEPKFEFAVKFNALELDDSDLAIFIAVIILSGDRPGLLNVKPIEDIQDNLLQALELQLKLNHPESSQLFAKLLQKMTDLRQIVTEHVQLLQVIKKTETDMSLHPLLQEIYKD
Procedure: as §1, §2, §3

| PPAR δ activity: relative value (%) of the test compound to 100% of the control compound (PPAR δ) | PPAR α activity: relative value (%) of the test compound to 100% of the control compound (PPAR α) | PPAR γ activity: relative value (%) of the test compound to 100% of the control compound (PPAR γ) | SMILES |
| --- | --- | --- | --- |
| 84.7% | 62.7% | 5.4% | Cc1cc2c(CCc3cc(-c4ccc(C(F)(F)F)cc4)nn3C(C)C)noc2cc1OC(C)(C)C(=O)O [Example 1, 2-[3-[2-[1-Isopropyl-3-(4-trifluoromethylphenyl)-1H-pyrazol-5-yl]ethyl]-5-methylbenzisoxazol-6-yloxy]-2-methylpropionic acid] |
| 87.8% | 0.2% | 0.3% | Cc1cc2c(CCc3cn(-c4ccc(C(F)(F)F)cc4)nc3C(C)C)noc2cc1OC(C)(C)C(=O)O [Example 3, 2-[3-[2-[3-Isopropyl-1-(4-trifluoromethylphenyl)-1H-pyrazol-4-yl]ethyl]-5-methylbenzisoxazol-6-yloxy]-2-methylpropionic acid] |
| 94.4% | 103.0% | 13.4% | Cc1cc2c(CCc3cc(-c4ccc(C(F)(F)F)cc4)nn3C(C)C)noc2cc1OCC(=O)O [Example 2, 3-[2-[1-Isopropyl-3-(4-trifluoromethylphenyl)-1H-pyrazol-5-yl]ethyl]-5-methylbenzisoxazol-6-yloxyacetic acid] |
